This is an account of results in patent publication US20260317374A1, “Carrier Peptide Fragment and Use Thereof” (TOAGOSEI CO., LTD., priority 2022, published 2026).

The test deals with NSC-34 cells (mouse motor neuron-like hybrid cell line). As to the kind of experiment: Cell membrane permeability of sample in NSC-34 cells by flow cytometry. It is filed as cell-based. The note with it: for median fluorescence intensity (MFI): 10 μM sample (FAM concentration 10 μM), 0.5% DMSO, 20 hours at 37° C., 5% CO2, detector FL2. How it is done:
In Example 1, a construct shown in Table 1 was prepared as a sample 1. Specifically, a construct formed of a synthetic peptide with the amino acid sequence set forth in SEQ ID No.: 1, in which an α-amino group of a lysine residue of an N-terminus is acetylated, and FAM (C21H12O7: 5(6)-carboxyfluorescein, molecular weight 376.3, excitation wavelength 495 nm, fluorescence wavelength 520 nm) corresponding to fluorescent dye bonded to the C-terminus of the synthetic peptide was prepared. The construct was diluted in dimethyl sulfoxide (DMSO) to prepare a sample solution 1 with a sample concentration of 2 mM.
As the eukaryotic cells, NSC-34 cells (mouse motor neuron-like hybrid cell line) were used and the cell membrane permeability of the sample 1 was evaluated. In Example 1, the prepared sample solution 1 was used, and in Example 2, the FAM solution was used.
The NSC-34 cell was cultured in 10% fetal bovine serum (FBS)-containing Dulbecco's modified Eagle's medium (DMEM (Cat No. 044-29765, manufactured by FUJIFILM Wako Pure Chemical Corporation)), which is a culture medium.
The NSC-34 cell that adhered to a culture plate was cleaned with PBS and then, a 0.25%-trypsin/EDTA solution was added thereto, and incubation was performed for three minutes at 37° C. After the incubation, the aforementioned 10% FBS-containing DMEM was added to deactivate trypsin and then, five-minute centrifugal separation was performed at 150×g to precipitate the cells. After the supernatant generated by the centrifugal separation was removed, the 10% FBS-containing DMEM was added to the precipitate (cell pellet) to prepare a cell suspension of about 1×10^5 cells/mL. The cell suspension was added by 1 mL to a well of a commercially available six-hole (well) plate (manufactured by AGC TECHNO GLASS Co., Ltd.) so as to seed the cell (about 1×10^5 cells/well). In addition, the 2 mM sample solution 1 was diluted with the 10% FBS-containing DMEM to prepare the sample solution 1 in which the concentration of the sample 1 was 20 μM. Then, 1 mL of the 20 μM sample solution 1 was added to the well (that is, so that the concentration of the sample 1 became […] and the DMSO concentration became 0.5% in the culture solution in the well). After that, the cell was incubated for 20 hours at 37° C. under a 5% CO2 condition.
After the 20-hour incubation, the culture supernatant was removed from the well and the cells in the well were cleaned twice with 1 mL of PBS. Next, 100 μL of the 0.25% trypsin/EDTA solution was added to the well and the incubation was performed for three minutes at 37° C. After the incubation, 900 µL of the 10% FBS-containing DMEM was added to the well to deactivate the trypsin. Subsequently, the cell suspension in the well was transferred to a tube and the cells were collected. After that, pre-washing was performed additionally, so that the cells remaining in the well were collected in the tube. This tube was subjected to five-minute centrifugal separation at 4° C. under a condition of 210×g. After the centrifugal separation, the supernatant was removed and the precipitate (cell pellet) was suspended (cleaned) with 1 mL of PBS, which was followed by the centrifugal separation under the same condition as that described above. […]
Regarding the obtained cells (cell pellet), the cell membrane permeability of the sample 1 was analyzed using a flow cytometer. […]

FAM = 5(6)-carboxyfluorescein

For the substance “5(6)-carboxyfluorescein [Example 2, reference compound]”, the “median fluorescence intensity (MFI)” value turned out to be 7.58.

For “Example 1: synthetic peptide of SEQ ID No.: 1 with N-terminal lysine α-amino group acetylated and FAM bonded to the C-terminus (Ac-KFRAQRRW-{FAM})”, the “median fluorescence intensity (MFI)” value amounted to 15.8. Also, where the note is “Example 1 compared to Example 2 (FAM), 20 hours”, the “histogram position (flow cytometer, FIG. 1)” value was “shifted to the right side compared to the histogram according to Example 2”. In addition, the cell membrane permeability entry (construct vs FAM alone, FIG. 1) is listed as “higher cell membrane permeability than FAM alone”. Take “SEQ ID No.: 1: carrier peptide fragment; synthetic peptide with amino acid sequence KFRAQRRW”: for the setting “concluded from the FAM construct (Example 1 vs Example 2)”, the “cell membrane permeability of carrier peptide fragment” value is given as “achieves the cell membrane permeability”.
